Results reported in ChEMBL document CHEMBL1201862, “PubChem BioAssay data set” (2004).
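All cell lines were grown in 96-well plates and treated with compound for 48 hours. Abbreviation: GI50, concentration required for 50% inhibition of growth.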 Calls of active or inactive are those of the source. No stated cut-off is given here; in the data, active = GI50 up to about 1.1 µM and inactive = higher.

Key:
Assay in all cases: DTP human tumour cell line panel, 48 h
MOLT-4 = tested on: MOLT-4
SF-539 = tested on: SF-539
OVCAR-4 = tested on: OVCAR-4
T47D = tested on: T47D
NCI-H23 = tested on: NCI-H23
NCI/ADR-RES = tested on: NCI/ADR-RES
CCRF-CEM = tested on: CCRF-CEM
MDA-MB-435 = tested on: MDA-MB-435
A549 = tested on: A549
SK-MEL-2 = tested on: SK-MEL-2
PC-3 = tested on: PC-3
HL-60 = tested on: HL-60
786-0 = tested on: 786-0
COLO 205 = tested on: COLO 205
SW-620 = tested on: SW-620
NCI-H522 = tested on: NCI-H522
MDA-N = tested on: MDA-N

Measured: GI50

NNc1[nH]c(=S)[nH]c1C(N)=O
inactive: MOLT-4 > 100 µM | SF-539 > 100 µM | OVCAR-4 > 100 µM | T47D > 100 µM | NCI-H23 > 10 µM | NCI/ADR-RES > 100 µM | CCRF-CEM > 100 µM | MDA-MB-435 > 100 µM | A549 > 100 µM | SK-MEL-2 > 100 µM | PC-3 > 100 µM | HL-60 > 100 µM | 786-0 > 100 µM | COLO 205 > 100 µM | SW-620 > 100 µM | NCI-H522 > 100 µM

COC(=O)Nc1nc(=O)c2cc(OC)c(OC)cc2[nH]1
inactive: MOLT-4 6.84 µM | SF-539 24.2 µM | OVCAR-4 > 100 µM | T47D 36 µM | NCI-H23 50 µM | NCI/ADR-RES 5.47 µM | CCRF-CEM 6.04 µM | A549 > 100 µM | SK-MEL-2 > 100 µM | PC-3 3.29 µM | HL-60 7.46 µM | 786-0 45.5 µM | MDA-N 2.31 µM | COLO 205 4.4 µM | SW-620 3.85 µM | NCI-H522 2.37 µM

N#Cc1sc2c(c1O)c(=O)n(-c1ccccc1)c(=S)n2-c1ccccc1
inactive: OVCAR-4 > 100 µM | T47D > 100 µM | NCI-H23 > 100 µM | CCRF-CEM > 10 µM | MDA-MB-435 > 100 µM | A549 > 100 µM | SK-MEL-2 > 100 µM | HL-60 > 100 µM | 786-0 > 100 µM | MDA-N > 100 µM | COLO 205 > 100 µM | SW-620 > 100 µM | NCI-H522 > 100 µM

C[Si](C)(C)C1=C2C(=O)c3ccccc3C(=O)C2=C([Si](C)(C)C)[C@@H]2CCCC[C@H]12
inactive: MOLT-4 > 100 µM | SF-539 > 100 µM | OVCAR-4 95.3 µM | T47D > 100 µM | NCI-H23 > 100 µM | CCRF-CEM > 100 µM | MDA-MB-435 > 100 µM | A549 > 100 µM | SK-MEL-2 > 100 µM | PC-3 > 100 µM | HL-60 > 100 µM | MDA-N > 100 µM | COLO 205 > 100 µM | SW-620 > 100 µM | NCI-H522 > 100 µM

Cn1c(=O)c(-c2ccccc2)c(O)c2ccccc21
inactive: MOLT-4 > 100 µM | SF-539 > 100 µM | OVCAR-4 > 100 µM | NCI-H23 > 100 µM | NCI/ADR-RES > 100 µM | CCRF-CEM > 100 µM | MDA-MB-435 > 100 µM | A549 > 100 µM | PC-3 > 100 µM | HL-60 > 100 µM | 786-0 > 100 µM | MDA-N > 100 µM | COLO 205 > 100 µM | SW-620 > 100 µM | NCI-H522 > 100 µM

Cc1cc(C#N)c(Nc2ccc(F)cc2[N+](=O)[O-])s1
inactive: MOLT-4 > 100 µM | SF-539 80.7 µM | OVCAR-4 > 100 µM | T47D > 100 µM | NCI-H23 > 100 µM | NCI/ADR-RES > 100 µM | CCRF-CEM > 100 µM | MDA-MB-435 > 100 µM | A549 > 100 µM | PC-3 > 100 µM | 786-0 54.5 µM | MDA-N > 100 µM | COLO 205 > 100 µM | SW-620 > 100 µM | NCI-H522 > 100 µM

COC1OC(CO)C(O)C(OC(=O)c2cc(O)c(O)c(O)c2)C1OC(=O)c1cc(O)c(O)c(O)c1 (stereo unspecified)
inactive: MOLT-4 79.4 µM | SF-539 83.6 µM | OVCAR-4 23.1 µM | NCI-H23 > 100 µM | NCI/ADR-RES 60.4 µM | CCRF-CEM 42.7 µM | MDA-MB-435 33.4 µM | A549 > 100 µM | SK-MEL-2 > 100 µM | PC-3 95.5 µM | HL-60 51.9 µM | 786-0 > 100 µM | MDA-N 25.1 µM | COLO 205 59.8 µM | SW-620 41.6 µM | NCI-H522 30.5 µM

COc1ccc(-c2cc(O)c3cccnc3n2)cc1
inactive: MOLT-4 29.3 µM | SF-539 42.4 µM | OVCAR-4 67.6 µM | T47D 51.1 µM | NCI-H23 34.7 µM | NCI/ADR-RES 47.6 µM | CCRF-CEM 28.1 µM | A549 53.7 µM | SK-MEL-2 83.8 µM | COLO 205 19.1 µM | SW-620 32.2 µM | NCI-H522 41.1 µM

O=c1c2cn[nH]c2nc2scc(-c3ccc(Cl)cc3)n12
inactive: MOLT-4 > 100 µM | SF-539 > 100 µM | OVCAR-4 > 100 µM | T47D > 100 µM | NCI-H23 > 100 µM | NCI/ADR-RES > 100 µM | CCRF-CEM > 100 µM | MDA-MB-435 > 100 µM | A549 > 100 µM | SK-MEL-2 53.6 µM | PC-3 > 100 µM | 786-0 > 100 µM | MDA-N > 100 µM | COLO 205 > 100 µM | SW-620 > 100 µM | NCI-H522 > 100 µM

c1ccc(C(=NCCC2CNc3ccccc32)c2ccccc2)cc1 (stereo unspecified)
inactive: MOLT-4 > 100 µM | OVCAR-4 > 100 µM | NCI-H23 > 100 µM | NCI/ADR-RES > 100 µM | CCRF-CEM > 100 µM | MDA-MB-435 > 100 µM | A549 > 100 µM | SK-MEL-2 > 100 µM | PC-3 > 100 µM | 786-0 > 100 µM | MDA-N > 100 µM | COLO 205 > 100 µM | SW-620 > 100 µM | NCI-H522 > 100 µM

Cn1c(=O)oc2cc(C(=S)N3CCCCC3)ccc21
inactive: MOLT-4 > 100 µM | SF-539 > 100 µM | NCI-H23 > 100 µM | NCI/ADR-RES > 100 µM | CCRF-CEM 61.8 µM | MDA-MB-435 > 100 µM | SK-MEL-2 > 100 µM | PC-3 > 100 µM | HL-60 > 100 µM | 786-0 > 100 µM | MDA-N > 100 µM | COLO 205 > 100 µM | SW-620 > 100 µM

CCOP(=O)(OCC)C(c1ccc(F)cc1)N(C(=O)NC(F)(F)F)c1ccc(F)cc1 (stereo unspecified)
inactive: MOLT-4 > 100 µM | SF-539 > 100 µM | NCI-H23 > 100 µM | NCI/ADR-RES > 100 µM | CCRF-CEM > 100 µM | MDA-MB-435 > 100 µM | A549 > 100 µM | PC-3 > 100 µM | HL-60 > 100 µM | 786-0 > 100 µM | MDA-N > 100 µM | COLO 205 > 100 µM | SW-620 > 100 µM | NCI-H522 > 100 µM

COc1ccc2c(C)cc(N/N=C/c3ccc(OC)c4ccccc34)nc2c1
inactive: MOLT-4 3.97 µM | SF-539 15.8 µM | OVCAR-4 19 µM | T47D 5.51 µM | NCI-H23 16.5 µM | NCI/ADR-RES 14.4 µM | CCRF-CEM 1.93 µM | MDA-MB-435 11.2 µM | A549 18.6 µM | SK-MEL-2 19.2 µM | PC-3 16.9 µM | HL-60 20.8 µM | 786-0 12.1 µM | COLO 205 16.7 µM | SW-620 7.06 µM | NCI-H522 12 µM
